Assay results reported in patent US20070059785A1, “Biomarkers in cancer” (SMITHKLINE BEECHAM CORPORATION, priority 2003, published 2007).
Entries after “also recorded” stand apart in the source; their conditions may differ.

Key:
[1] = target: T1, erbB2 (Homo sapiens, UniProt P04626); assay: Tumor xenografts, activated and total erbB2 by quantitative IHC; type: in vivo, mice; conditions: HN5 and BT474 xenografts, 200 mg/kg oral once daily
[2] = target: T1, erbB2; assay: IP Western/Western blot of p-Tyr/erbB2 and total erbB2 in Hb4a cells; type: cell-based; set-up: endogenous in cells; host or cells: Hb4a; conditions: 5 μM, 72 h, not reversed by EGF
Experimental: (§1) The EGFR overexpressing LICR-LON-HN5 head and neck carcinoma cell line, HN5, was kindly provided by Helmout Modjtahedi at the Institute of Cancer Research, Surrey, U.K.
Protein concentrations were determined using a modification of the Bradford method (Bio-Rad Laboratory).
For IP Western blots, equivalent amounts of protein were precleared with Protein G Plus/Protein A agarose overnight at 4° C. Precleared lysates were then incubated overnight at 4° C. with specific antibodies. Immune complexes were precipitated with Protein G Plus/Protein A agarose beads, washed in RIPA buffer and then boiled in sample loading buffer. Steady state levels of total Erk1/2 and activated Erk1/2 (p-Erk) as well as total AKT protein and activated AKT (p-AKT) protein were assessed by Western blot. […] Proteins were transferred to Immobilon-P or nitrocellulose membranes. Efficiency and equal loading of proteins was evaluated by Ponceau S staining. Membranes were blocked for 1 hr in TBS (25 mM Tris-HCl, pH 7.4, 150 mM NaCl, 2.7 mM KCl) containing 4% (w/v) lowfat milk or 3% BSA (w/v). Membranes were then probed with specific antibodies recognizing target proteins. […]
(§2) Steady state levels of activated erbB2 and EGFR (p-Tyr/ErbB2 and p-Tyr/EGFR); total erbB2 and EGFR; activated Erk1/2 (p-Erk1/2) and total Erk1/2 were assessed by either IP Western or Western blot.

[3] = tested on: AKT; assay: Western blot of p-AKT in HN5 cells; type: cell-based, human; conditions: HN5, 5 μM, 24 h serum-free
Experimental: as §1, with “The erbB2 overexpressing human breast adenocarcinoma cell line, BT474, was obtained from the American Type Culture Collection (Rockville, M, USA). […] The” for “The”
(§3) For IP Western blots, equivalent amounts of protein were precleared with Protein G Plus/Protein A agarose overnight at 4° C. Precleared lysates were then incubated overnight at 4° C. with specific antibodies. Immune complexes were precipitated with Protein G Plus/Protein A agarose beads, washed in RIPA buffer and then boiled in sample loading buffer. Steady state levels of total Erk1/2 and activated Erk1/2 (p-Erk) as well as total AKT protein and activated AKT (p-AKT) protein were assessed by Western blot. […] Proteins were transferred to Immobilon-P or nitrocellulose membranes. Efficiency and equal loading of proteins was evaluated by Ponceau S staining. Membranes were blocked for 1 hr in TBS (25 mM Tris-HCl, pH 7.4, 150 mM NaCl, 2.7 mM KCl) containing 4% (w/v) lowfat milk or 3% BSA (w/v). Membranes were then probed with specific antibodies recognizing target proteins. Proteins were visualized with the SUPERSIGNAL® West Femto Maximum sensitivity substrate kit (Pierce).

[4] = tested on: Erk1/2; assay: Tumor xenografts, phospho-Erk1/2 and total Erk1/2 by quantitative IHC; type: in vivo, mice; conditions: data not shown
Description: DAB (Dako) was used as the chromogen.
Inhibition of erbB2/EGFR p-tyr in turn led to the inhibition of downstream activated, phospho-Erk1/2.

[5] = target: T1, erbB2; assay: BT474 tumor xenograft, p-Tyr/ErbB-2 and total ErbB-2 by Western blot; type: in vivo, C.B-17 SCID mice; conditions: 100 mg/kg
Experimental: (§4) The tumor implant was removed after the final treatment dose. Activated receptor (p-Tyr/ErbB-2) was assessed by IP Western blot and total ErbB-2 steady state protein (ErbB-2), total Erk1/2 and activated Erk1/2 (p-Erk1/2) were assessed by Western blot loading equal amounts of protein from tumor biopsies.
Cell extracts were prepared by homogenization as described for HN5 xenografts.
as §4, with “BT474” for “The”, “xenografts (subcutaneous) were established as described in Materials and Methods. […] Controls were treated with vehicle alone. […]” for “implant was removed after the final treatment dose.”

[6] = tested on: Erk1/2; assay: Western blot of p-Erk1/2 in Hb4a cells; type: cell-based, human; conditions: 5 μM, 72 h, not reversed by EGF
Experimental: as §1, §3, §2

[7] = tested on: pAKT; assay: Clinical tumor biopsies, p-AKT by quantitative IHC
Description: “pAKT” refers to phosphorylated AKT as measured by immunohistochemistry and reported in OD;

[8] = tested on: TGFα; assay: Clinical tumor biopsies, TGFα by IHC; conditions: patient 425, inflammatory breast cancer, 1200 mg/d ditosylate salt, day 21 (day 0: 32)
Description: Erk1/2 (1:1200), erbB3 (1:10), heregulin (1:25), and TGFα (1:20) were also immunostained using the BenchMark™ with I-VIEW detection chemistry.
All subjects provided written informed consent.
“TGFα” refers to Transforming Growth Factor alpha as measured by immunohistochemistry and reported in OD;

T1 sequence (P04626 23-1255): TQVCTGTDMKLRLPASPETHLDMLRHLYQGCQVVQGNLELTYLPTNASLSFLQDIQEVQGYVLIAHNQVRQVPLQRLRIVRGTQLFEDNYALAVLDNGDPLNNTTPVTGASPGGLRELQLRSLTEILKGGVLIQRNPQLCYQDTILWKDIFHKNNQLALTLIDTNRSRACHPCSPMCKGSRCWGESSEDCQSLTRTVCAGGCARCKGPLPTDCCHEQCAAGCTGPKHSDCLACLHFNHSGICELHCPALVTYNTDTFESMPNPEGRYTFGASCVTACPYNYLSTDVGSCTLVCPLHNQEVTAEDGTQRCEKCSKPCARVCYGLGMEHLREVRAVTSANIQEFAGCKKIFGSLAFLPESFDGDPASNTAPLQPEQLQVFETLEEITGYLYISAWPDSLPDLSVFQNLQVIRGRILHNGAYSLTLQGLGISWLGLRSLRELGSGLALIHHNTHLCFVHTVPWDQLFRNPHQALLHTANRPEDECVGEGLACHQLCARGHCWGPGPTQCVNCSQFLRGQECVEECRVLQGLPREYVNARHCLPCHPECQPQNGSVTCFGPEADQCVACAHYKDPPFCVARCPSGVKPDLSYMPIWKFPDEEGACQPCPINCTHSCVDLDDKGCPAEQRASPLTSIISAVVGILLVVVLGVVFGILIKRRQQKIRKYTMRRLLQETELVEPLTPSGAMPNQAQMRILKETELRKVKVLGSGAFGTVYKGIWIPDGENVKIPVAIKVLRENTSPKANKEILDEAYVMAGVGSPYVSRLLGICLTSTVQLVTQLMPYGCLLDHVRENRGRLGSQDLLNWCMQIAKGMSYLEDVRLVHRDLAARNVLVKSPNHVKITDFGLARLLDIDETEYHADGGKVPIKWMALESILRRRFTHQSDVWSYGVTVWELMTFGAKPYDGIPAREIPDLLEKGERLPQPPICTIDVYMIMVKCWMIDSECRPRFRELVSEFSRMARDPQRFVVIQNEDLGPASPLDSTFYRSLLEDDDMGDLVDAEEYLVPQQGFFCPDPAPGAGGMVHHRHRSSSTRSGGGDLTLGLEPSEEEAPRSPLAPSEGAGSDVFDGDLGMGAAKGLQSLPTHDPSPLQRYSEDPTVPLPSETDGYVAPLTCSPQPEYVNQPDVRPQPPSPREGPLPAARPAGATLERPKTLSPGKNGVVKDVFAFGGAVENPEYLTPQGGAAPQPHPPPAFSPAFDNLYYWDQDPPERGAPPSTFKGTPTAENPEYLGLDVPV

## CS(=O)(=O)CCNCc1ccc(-c2ccc3ncnc(Nc4ccc(OCc5cccc(F)c5)c(Cl)c4)c3c2)o1 [GW572016, N-{3-Chloro-4-[(3-fluorobenzyl)oxy]phenyl}-6-[5-({[2-(methylsulfonyl)ethyl]amino}methyl)-2-furyl]-4-quinazolinamine]
[1]
  erbB2 total protein: neither EGFR nor erbB2 total protein was affected
[1]; data not shown
  activated erbB2: inhibition
[2]
  baseline amount of p-Tyr/erbB2: reduced; also recorded: decreased
[3]
  p-AKT: inhibited p-AKT in HN5 cells, the effect was smaller than in erbB2-overexpressing tumor cells
[4]
  p-Erk1/2 levels: reduced
  total Erk1/2 protein: unaffected
[5]
  total erbB2 steady state protein levels: without effects
[6]
  baseline amount of p-Erk: reduced; also recorded: decreased
[7]; patient 361, breast, 1200 mg/d, day 21 (day 0: 36)
  p-AKT OD: 24 OD
[7]; patient 362, adenocarcinoma unknown primary, 900 mg/d, day 21 (day 0: 61)
  p-AKT OD: 81 OD
[7]; patient 363, sarcoma, 500 mg/d, day 21 (day 0: 19)
  p-AKT OD: 32 OD
[7]; patient 364, 1600 mg/day, Day 21
  reduction of p-AKT: 16%
[7]; patient 364, head & neck, 1600 mg/d, day 21 (day 0: 51)
  p-AKT OD: 43 OD
[7]; patient 366, ovarian, 900 mg/d, day 21 (day 0: 22), aberrant staining, not considered valid
  p-AKT OD: 47 OD
[7]; patient 367, adenocarcinoma unknown primary, 650 mg/d, day 21 (day 0: 35)
  p-AKT OD: 25 OD
[7]; patient 369, head & neck, 1200 mg/d, day 21 (day 0: 24)
  p-AKT OD: 7 OD
[7]; patient 371, breast, 900 mg/d, day 21 (day 0: 36)
  p-AKT OD: 33 OD
[7]; patient 372, breast, 1200 mg/d, day 21 (day 0: 48)
  p-AKT OD: 30 OD
[7]; patient 425, inflammatory breast cancer, 1200 mg/d ditosylate salt, day 21 (day 0: 85)
  pAKT: 26 OD
[7]; patient 425, post-treatment tumor sample, IHC, results not shown
  intensity of pAkt staining, particularly in the nuclei: greatly reduced
[8]
  TGFa: 22 OD
